{"source": "paper PMC8617944", "about": "“Preclinical Pharmacokinetics and Acute Toxicity in Rats of 5-{[(2E)-3-Bromo-3-carboxyprop-2-enoyl]amino}-2-hydroxybenzoic Acid: A Novel 5-Aminosalicylic Acid Derivative with Potent Anti-Inflammatory Activity” (Molecules, 2021)", "origin": "cited, not measured here", "key": {"[1]": {"design": "method as in ref 32, 33 = [32]; doi:10.1016/j.arabjc.2016.12.026; 32. Cabrera Pérez L.C. Gutiérrez Sánchez M. Mendieta Wejebe J.E. Hernández Rodríguez M. Fragoso Vázquez M.J. Salazar J.R. Correa Basurto J. Padilla Martínez I.I. Rosales Hernández M.C. Novel 5-aminosa || [33]; 33. Correa Basurto J. Rosales Hernández M.C. Mendieta Wejebe J.E. Trujillo Ferrara J.G. Padilla Martínez I.I. Ramírez Durán L.A. Alemán González Duhart D. Síntesis de un derivado del ácido 5-aminosali", "conditions": "0.408 mM; cited from earlier work"}, "rats": {"tested_on": "rats", "conditions": "rat, in vivo, po; cited from earlier work"}}, "data": [{"smiles": "Nc1ccc(O)c(C(=O)O)c1", "note": "[Compound 5-ASA, 5-aminosalicylic acid]", "values": [{"measurement": "reduction of the free radical DPPH", "setting": "[1]", "result": "about 85%"}, {"measurement": "LD50", "setting": "rats", "result": 2800, "unit": "mg/kg"}]}]}
